Laboratory results reported in US7696251B2, “Method for inhibiting neuronal cell death induced by oxidative glutamate toxicity” (Incorporated National University Iwate University, priority 2007, dated 2010).
Where two headings read alike, the source gives them in different places.

Key:
[1] = system: HT22 cells; assay: Oxidative glutamate toxicity in HT22 cells, MTT assay; type: cell-based, mouse; conditions: for IC50: Mus musculus, read-out: concentration of half inhibition (IC50) of oxidative glutamate toxicity
Protocol: (§1) DPPD and its derivatives, shown in FIG. 1, were obtained from Ouchi Shinko Chemical Industrial (Tokyo, Japan). The compounds were dissolved in dimethyl sulfoxide (DMSO). The final concentration of DMSO in the culture medium was 0.1%. TNFα, actinomycin D (AcD), XA, XO, glutamate and H2O2 were purchased from Sigma (St. Louis, Mo., USA). HT22 cells were cultured and MTT assays were performed as described previously. Experiments presented here were repeated at least 3 times with 4 samples for each determination. The data are presented as the mean ±SD (for in vitro experiments). In order to examine the neuroprotective effects of DPPD, we employed the following 4 death-inducing agents: 1) glutamate (oxidative stress, transcription-dependent), 2) TNFα (receptor-mediated apoptosis, transcription-independent), 3) H2O2 (oxidative stress, transcription-independent) and 4) XA+XO (oxidative stress, transcription-independent). In FIG. 1, squares, DPPD; circles, D1; triangles, D2. […] HT22 cells were seeded into 24-well plates at a density of 4×10^4 cells/cm^2. After a 5-hr incubation, various concentrations of the compounds were added. One hour later, 5 mM of glutamate was added to the cultures, and 20 h thereafter, the cells were subjected to the MTT assay. The values, which represent the percentage of the control MTT activity, are means ±S.D.s (n=4).
In order to determine whether the inhibition was substantially specific to cell death by oxidative glutamate toxicity, the effects of these compounds on the cell death induced by various stimuli were examined. Adverting to FIGS. 2A, 2B, 2C and 2D, 2HT22 cells were seeded into 24-well plates at a density of 4×10^4 cells/cm^2. After a 5-hr incubation, various concentrations of DPPD were added. One hour later, the cells were treated for 20 h with glutamate (A), TNFα in the presence of 0.1 μg/ml AcD (B), H2O2 (C) and XO in the presence of 0.1 mg/ml of XA (D) and then were subjected to the MTT assay. The values, which represent the percentage of the control MTT activity, are means ±S.D.s (n=4).

[2] = system: HT22 cells; assay: TNFα-induced cell death of HT22 cells (with AcD), MTT assay; type: cell-based, mouse; conditions: 0.1 or 1.0 ng/ml TNFα with 0.1 μg/ml AcD, 20 h, MTT (FIG. 2B)
Protocol: as §1, with “(n=4). […]” for “(n=4).”

[3] = system: HT22 cells; assay: H2O2-induced cell death of HT22 cells, MTT assay; type: cell-based, mouse; conditions: 30 or 50 μM H2O2, 20 h, MTT (FIG. 2C)
Protocol: as §1, with “(n=4). […]” for “(n=4).”

[4] = system: HT22 cells; assay: XA+XO-induced cell death of HT22 cells, MTT assay; type: cell-based, mouse; conditions: 15 or 30 mU/ml XO with 0.1 mg/ml XA, 20 h, MTT (FIG. 2D)
Protocol: as §1, with “(n=4). […]” for “(n=4).”

[5] = system: PC12 cells; conditions: DPPD at μM concentrations; associated with decrease in intracellular ROS levels [13]; cited from earlier work
[6] = HT-22, HT22 cells, 5 mM glutamate, 20 h, MTT assay

Row | Structure (SMILES) | IC50 ([1]; HT-22, 20 h) [nM] | IC50 [1, 6] [nM] | also measured
1 | CC(C)Nc1ccc(Nc2ccccc2)cc1 [D1] | 5.4 |  | 
2 | Nc1ccc(Nc2ccccc2)cc1 [D2] |  | 26 | 
3 | Nc1ccc(N)cc1 [D3] | 879 |  | 
4 | Nc1ccccc1 [D4] |  | 94000 | 
5 | c1ccc(Nc2ccc(Nc3ccccc3)cc2)cc1 [DPPD, N,N′-Diphenyl-p-phenylenediamine] | 7.7 |  | protection against death induced by glutamate ([1]; DPPD at 1-10 nM, 5 or 10 mM glutamate, 20 h, MTT (FIG. 2A)): almost completely blocked; protection against TNFα-induced neuronal death [2]: substantially ineffective; protection against H2O2-induced cell death [3]: did not substantially protect; protection against XA+XO-induced cell death [4]: did not substantially protect; protection of PC12 cells against lipid peroxide [5]: protected
